Assay results taken from publication PMC5838147, “Modulation of Oral Bioavailability and Metabolism for Closely Related Cyclic Hexapeptides” (International Journal of Peptide Research and Therapeutics, 2017).
≈ marks a conversion by molar mass, not a printed value. Where two headings read alike, the source gives them in different places. Where a SMILES comes first, the peptide text is derived from it. [ ]: non-standard residue; d: D form. NMeY = CN[C@@H](Cc1ccc(O)cc1)C(=O)O; NMeL = CN[C@@H](CC(C)C)C(=O)O; dNMeL = CN[C@H](CC(C)C)C(=O)O; Abu = CC[C@H](N)C(=O)O

Assays:
in vitro [1] = conditions: dog, MDCK
Protocol: (§1) The values relate to single experiments. For the MDCK assay, the lower limit of quantification (LLOQ) was 5 nM, and for PAMPA 2 nM, respectively. […] This has been estimated by looking at independent replicates across the assay dynamic range.

in vitro [2] = conditions: mouse, microsomes
Protocol: (§2) The values relate to single experiments. […] This has been estimated by looking at independent replicates across the assay dynamic range.
(§3) In order to make predictions of pharmacokinetic properties of these cyclic peptides, further in vitro evaluation was carried out to determine plasma-protein binding (PPB) and metabolic stability in mouse liver microsomes (MLM). […] In order to predict clearance in vivo, evaluation in vitro was assessed in MLM.

physchem = conditions: pH 6.8, thermodynamic from solid
Protocol: as §1

[3] = mouse
Protocol: (§4) For mouse PK on peptides (4) and (5), blood concentrations versus time profiles were obtained from 2 groups of 3 male C57Bl/6 mice. In the intravenous PK group (n = 3), the compound was administered intravenous (i.v.) by bolus injection (5 mL/kg) at a dose of 1 mg/kg, solubilized in N-Methyl-2-pyrrolidone (10%) and blank plasma (90%). For oral PK, another group of 3 male C57Bl/6 mice, a dose of 3 mg/kg was orally applied (dosing volume of 10 mL/kg) as a homogenous suspension of water (99%), Tween80 (0.5%) and methylcellulose (0.5%).
(§5) For both rodents, blood samples (10–50 µL) were collected at 0.08 (i.v. only), 0.25, 0.5, 1, 2, 4, 7, and 24 h after dosing. […] Analyses of parent compound concentrations were carried out in blood using LC-MS/MS. An aliquot of 30 μL was taken and added to 200 μL MeCN (including Glyburide (c = 50 ng/mL) as internal standard) for protein precipitation. Sample analysis was performed on a LC–MS/MS system consisting of an AB SCIEX API 5500 QTrap mass spectrometer equipped with a TurboIonSpray™ interface (Framingham, USA). The MS system was connected to a HTS CTC PAL auto-sampler (Zwingen, Switzerland) and to a Flux Rheos 2200 pump system (Reinach, Switzerland). The supernatants (2 µL) were injected directly onto the LC-MS/MS system for analysis. The test articles and its internal standard were separated with a Phenomenex Kinetex C18 (50 × 2 mm ID, 2.7 µm pore size). A binary gradient with a mobile phase consisting of water (A) and acetonitrile (B) was used for the LC-separation. Both mobile phases (A) and (B) were acidified with 0.1% formic acid. The elution gradient program was as follows: [time (min), (% mobile phase B): (0, 95) (5.8, 85) (5.81, 99) (6.5, 99) (6.51, 95) (8, 95)]. The column temperature was maintained at 50 °C using a column heater. Under these experimental conditions, the LLOQ was 0.4 ng/mL.

[4] = mouse, in vivo; for Vd / clearance: iv, 1 mg/kg; for Tmax: po
Protocol: as §4, §5

[5] = Supercritical fluid chromatography (SFC) retention, exposed polarity; assay type: physicochemical; conditions: Chirex 3014 column, reflects exposure of polar groups
From the text: Conditions for analytical supercritical fluid chromatography (SFC) were taken from previous publications (Goetz et al. [2014a], [b]). The Pirkle chiral stationary phase Chirex 3014, a silica bonded (S)-valine and (R)-1-(α-naphthyl)ethylamine with a urea linkage, was selected. A mobile phase of 15% methanol in supercritical CO2 enabled adequate separation in combination with a low-slope gradient. High retention times were mitigated by increasing the percentage of methanol in the eluent and the addition of the relatively weak salt pair ammonium formate. In the resulting chromatographic system, differences in retention depend upon hydrophobic interactions, the ability for hydrogen bonding, the presence of dipoles, and van der Waals interactions of the solutes with the stationary phase (Goetz et al. [2014a], [b]).
Next, we applied SFC-analysis to compare calculations related to polar surface area with experimentally derived data. […] Thus, calibrated SFC retention times can be compared to the SAPSA values obtained from molecular dynamics. […] As a result, shielding of polar atoms under SFC conditions is realized most optimally in the Abu derivative (4) leading to a short retention time of 2.7 min. […] However, in this case the best permeability was attributed to the Phe analogue. […] However, most likely in the case of peptide (5), for which the MDCK assay is not aligned with PAMPA and SFC, the low predictability for oral uptake would have excluded this candidate from an in vivo experiment. Taking into account the in vitro profiling, it seems possible to identify cyclic peptides with good permeability and solubility.

[6] = mouse, microsomes
Protocol: as §2, §3

[7] = plasma
Protocol: as §2, §3

in vivo = conditions: male, po
Protocol: as §4, §5

[8] = rat, in vivo, po, 3 mg/kg
Protocol: (§6) For rat PK, blood concentration versus time profiles were obtained from 3 male Sprague Dawley rats. For intravenous PK, the compound was administered intravenously by bolus injection (0.5 mL/kg) at a dose of 3 mg/kg, solubilized in N-Methyl-2-pyrrolidone (30%) and PEG200 (70%). For oral PK, after a washout period of 48 h, an oral gavage was administered to the same animals at a dose of 3 mg/kg at a dosing volume of 2.5 mL/kg. The oral dose was dispersed in water (99%), Tween80 (0.5%) and methylcellulose (0.5%), forming a homogenous suspension. For both rodents, blood samples (10–50 µL) were collected at 0.08 (i.v. only), 0.25, 0.5, 1, 2, 4, 7, and 24 h after dosing. To investigate the absorption and the impact of pre-systemic metabolism, the model of portal vein cannulation in rats was applied for compounds orally dosed in a cassette. The week before the PK experiments, the rats were surgically prepared with catheter implantation into the right jugular vein (for collection of blood from the systemic circulation) and the hepatic portal vein (for collection of blood from the portal vein, i.e. after intestinal absorption and metabolism and before liver pe-systemic metabolism). After recovery, the rats were orally dosed by gavage (same dose, volume and formulation as described above), and blood samples (50 µL) were collected at 0.25, 0.5, 1, 2, 4, 7, and 24 h concomitantly from the 2 blood vessels. Analyses of parent compound concentrations were carried out in blood using LC-MS/MS. An aliquot of 30 μL was taken and added to 200 μL MeCN (including Glyburide (c = 50 ng/mL) as internal standard) for protein precipitation. Sample analysis was performed on a LC–MS/MS system consisting of an AB SCIEX API 5500 QTrap mass spectrometer equipped with a TurboIonSpray™ interface (Framingham, USA). The MS system was connected to a HTS CTC PAL auto-sampler (Zwingen, Switzerland) and to a Flux Rheos 2200 pump system (Reinach, Switzerland). The supernatants (2 µL) were injected directly onto the LC-MS/MS system for analysis. The test articles and its internal standard were separated with a Phenomenex Kinetex C18 (50 × 2 mm ID, 2.7 µm pore size). A binary gradient with a mobile phase consisting of water (A) and acetonitrile (B) was used for the LC-separation. Both mobile phases (A) and (B) were acidified with 0.1% formic acid. The elution gradient program was as follows: [time (min), (% mobile phase B): (0, 95) (5.8, 85) (5.81, 99) (6.5, 99) (6.51, 95) (8, 95)]. The column temperature was maintained at 50 °C using a column heater. Under these experimental conditions, the LLOQ was 0.4 ng/mL.
(§7) Accordingly, we decided to conduct a hepatic portal vein (H.P.V.) study in Sprague Dawley rats due to the technical difficulties associated with a smaller species like mice. Rats were equipped with double jugular vein and hepatic portal vein cannulation. A standard jugular vein cannulation experiment was run in parallel as a control.

[9] = rat, in vivo, 3 mg/kg; for clearance: iv; for AUC: po
Protocol: as §6, §7

[10] = in vivo, cited from earlier work; for CL Mouse / Vss: iv, 2.1 mg/kg; for Vss / Tmax / T1/2term: mouse; for Tmax: po, 7.1 mg/kg

Q: What does the source list for `CC(C)C[C@@H]1NC(=O)[C@H](Cc2ccccc2)NC(=O)[C@H]2CCCN2C(=O)[C@H](CC(C)C)NC(=O)[C@H](CC(C)C)N(C)C(=O)[C@@H](CC(C)C)N(C)C1=O` [(3), [Phe-Leu-NMe-D-Leu-NMe-Leu-Leu-D-Pro]] (cyclo(FL[dNMeL][NMeL]L[dP]))?
A: Papp (in vitro [1]): 11.6 ×10⁻⁶ cm/s; microsomal CLint (in vitro [2]): 488 µL/min/mg; solubility thermodynamic (physchem): 30 µM (≈ 21.7 µg/mL); class for in vivo CL in mice [3]: low CL; half-life [4]: 330 ± 24 min; Vd [4]: 0.6 ± 0.1 L/kg; clearance [4]: 2 mL/min/kg; Tmax ([4]; 7.5 mg/kg): 18 ± 6 min; SFC [5]: 2.9 min; Log PAMPA: −4.0; clearance in the MLM assay (in words) [6]: very high CL; fraction unbound [7]: < 0.01; bioavailability (in vivo; OF1, mouse): 7 ± 2%

Q: Which Papp (in vitro [1]) does the source give for `CC(C)C[C@@H]1NC(=O)[C@H](C)NC(=O)[C@H]2CCCN2C(=O)[C@H](CC(C)C)NC(=O)[C@H](CC(C)C)N(C)C(=O)[C@@H](CC(C)C)N(C)C1=O` [(5), [Ala-Leu-NMe-D-Leu-NMe-Leu-Leu-D-Pro]] (cyclo(AL[dNMeL][NMeL]L[dP])) here?
A: The Papp was 2.7 ×10⁻⁶ cm/s.

Q: What about the microsomal CLint (in vitro [2]) of the same compound?
A: The microsomal CLint was 654 µL/min/mg.

Q: And the solubility thermodynamic (physchem)?
A: The solubility thermodynamic was greater than 1000 µM.

Q: What about the “class for in vivo CL in mice” value [3] of the same compound?
A: Its value is “high CL”.

Q: And the “Liver first pass effect” value [8]?
A: The value was 77%.

Q: What about the half-life [4] of the same compound?
A: Its half-life is 24 ± 6 min.

Q: What about the Vd [4] of the same compound?
A: Its Vd is 2.8 ± 0.3 L/kg.

Q: And the clearance [4]?
A: Its clearance is 105 ± 26 mL/min/kg.

Q: What about the Tmax ([4]; 3 mg/kg) of the same compound?
A: The Tmax was 18 min.

Q: What about the SFC [5] of the same compound?
A: Its SFC is 2.8 min.

Q: What about the “Log PAMPA” value of the same compound?
A: Its value is −4.6.

Q: What about the “clearance in the MLM assay (in words)” value [6] of the same compound?
A: The value was “very high CL”.

Q: And the fraction unbound [7]?
A: Its fraction unbound is less than 0.01.

Q: What about the bioavailability (in vivo; C57BL/6, mouse) of the same compound?
A: The bioavailability was 23 ± 4%.

Q: What about the clearance [9] of the same compound?
A: Its clearance is 70 mL/min/kg.

Q: And the AUC ([9]; Jugular vein (AuC))?
A: The AUC was 0.104 µM·h.

Q: What about the AUC ([9]; Portal vein (AuC)) of the same compound?
A: Its AUC is 0.449 µM·h.

Q: For `CC(C)C[C@@H]1NC(=O)[C@H](Cc2ccc(O)cc2)NC(=O)[C@H]2CCCN2C(=O)[C@H](CC(C)C)NC(=O)[C@H](CC(C)C)NC(=O)[C@@H](CC(C)C)NC1=O` [(1), [Tyr-Leu-D-Leu-Leu-Leu-D-Pro-]] (cyclo(LL[dP]YL[dL])), which “CL Mouse” value [10] is on record?
A: Its value is 82 ± 15 mL/min/kg.

Q: What about the Vss [10] of the same compound?
A: The Vss was 0.8 ± 0.2 L/kg.

Q: What about the Tmax [10] of the same compound?
A: The Tmax was 36 ± 18 min.

Q: And the T1/2term [10]?
A: The T1/2term was 12 ± 0 min.

Q: What about the microsomal CLint (in vitro [2]) of the same compound?
A: The microsomal CLint was 95 µL/min/mg.

Q: And the solubility thermodynamic (physchem)?
A: The solubility thermodynamic was 151 µM (≈ 108 µg/mL).

Q: What about the “class for in vivo CL in mice” value [3] of the same compound?
A: Its value is “high CL”.

Q: What about the SFC [5] of the same compound?
A: Its SFC is 4.8 min.

Q: And the fraction unbound [7]?
A: Its fraction unbound is 0.08.

Q: Which Papp (in vitro [1]) does the source give for `CC[C@@H]1NC(=O)[C@H]2CCCN2C(=O)[C@H](CC(C)C)NC(=O)[C@H](CC(C)C)N(C)C(=O)[C@@H](CC(C)C)N(C)C(=O)[C@H](CC(C)C)NC1=O` [(4), [Abu-Leu-NMe-D-Leu-NMe-Leu-Leu-D-Pro]] (cyclo([Abu]L[dNMeL][NMeL]L[dP])) here?
A: Its Papp is 4 ×10⁻⁶ cm/s.

Q: And the microsomal CLint (in vitro [2])?
A: Its microsomal CLint is 324 µL/min/mg.

Q: And the solubility thermodynamic (physchem)?
A: The solubility thermodynamic was 602 µM (≈ 399 µg/mL).

Q: And the “class for in vivo CL in mice” value [3]?
A: Its value is “medium CL”.

Q: And the “Liver first pass effect” value [8]?
A: The value was 11%.

Q: What about the half-life [4] of the same compound?
A: The half-life was 48 ± 12 min.

Q: And the Vd [4]?
A: The Vd was 2.1 ± 0.2 L/kg.

Q: What about the clearance [4] of the same compound?
A: The clearance was 49 ± 14 mL/min/kg.

Q: What about the Tmax ([4]; 3 mg/kg) of the same compound?
A: The Tmax was 18 min.

Q: What about the SFC [5] of the same compound?
A: Its SFC is 2.7 min.

Q: And the “Log PAMPA” value?
A: Its value is −4.3.

Q: And the “clearance in the MLM assay (in words)” value [6]?
A: The value was “very high CL”.

Q: And the fraction unbound [7]?
A: The fraction unbound was less than 0.01.

Q: And the bioavailability (in vivo; C57BL/6, mouse)?
A: Its bioavailability is 39 ± 4%.

Q: What about the clearance [9] of the same compound?
A: The clearance was 41 mL/min/kg.

Q: What about the AUC ([9]; Jugular vein (AuC)) of the same compound?
A: Its AUC is 1.66 µM·h.

Q: What about the AUC ([9]; Portal vein (AuC)) of the same compound?
A: Its AUC is 1.84 µM·h.

Q: With `CC(C)C[C@@H]1NC(=O)[C@H](Cc2ccc(O)cc2)N(C)C(=O)[C@H]2CCCN2C(=O)[C@H](CC(C)C)NC(=O)[C@H](CC(C)C)N(C)C(=O)[C@@H](CC(C)C)N(C)C1=O` [(2), [NMe-Tyr-Leu-NMe-D-Leu-NMe-Leu-Leu-D-Pro]] (cyclo(L[dNMeL][NMeL]L[dP][NMeY])) as the compound, how does the “CL Mouse” value [10] read?
A: Its value is 1 ± 0 mL/min/kg.

Q: And the Vss [10]?
A: Its Vss is 0.4 ± 0.0 L/kg.

Q: And the Tmax [10]?
A: Its Tmax is 228 ± 186 min.

Q: What about the T1/2term [10] of the same compound?
A: The T1/2term was 1360 ± 324 min.

Q: And the microsomal CLint (in vitro [2])?
A: Its microsomal CLint is 63 µL/min/mg.

Q: And the solubility thermodynamic (physchem)?
A: The solubility thermodynamic was 26 µM (≈ 19.6 µg/mL).

Q: What about the “class for in vivo CL in mice” value [3] of the same compound?
A: Its value is “low CL”.

Q: What about the SFC [5] of the same compound?
A: Its SFC is 4.1 min.

Q: What about the “clearance in the MLM assay (in words)” value [6] of the same compound?
A: The value was “medium clearance”.

Q: And the fraction unbound [7]?
A: Its fraction unbound is less than 0.01.
